Read-outs that look alike come from different tables or passages of the source.
Experiments:
[1] = Phase I dose-escalation study, plasma pharmacokinetics; format: in vivo, human; conditions: for concentration at 15 day: read-out: Cmin (μM), Mean; for AUC(0-t): read-out: AUC0-24 (μM*hr), Mean; for AUC(0-inf): read-out: AUCinf (μM*hr), Mean
Method: Plasma samples for pharmacokinetic (“PK”) analysis were collected on day 1 and day 8 or day 15 of cycle 1. Fluorodeoxyglucose positron emission tomography (“FDG-PET”) was performed at baseline and on-treatment.
Dosing times may have been adjusted to accommodate for time shifts from the home administration schedule (e.g., for clinic visits with PK sampling or traveling), but times were to be adjusted by no more than 4 hours at a time.
For administration under fasted conditions, patients fasted overnight for at least 8 hours before dosing and 2 hours after dosing.
For Cohorts 1-6 (2-30 mg), the single dose on Cycle 1, Day 1 was followed by a 7 day washout-period, after which continuous once daily dosing, for 28 consecutive days, was started on Day 8. Blood samples for Cohorts 1-6 were collected on Day 15 for PK analysis.
All plasma concentration-time data collected in Cycle 1 were analyzed using WinNonlin® (Version 6.4, Pharsight Corp, Mountain View, Calif.) to estimate PK parameters, which included but were not limited to AUC0-last (where AUC refers to the area under the concentration-time curve) and/or AUCinf, Cmax, Cmin, tmax, half-life, CL/F, and accumulation ratio. Estimates for each PK parameter and summary statistics (mean, standard deviation, coefficient of variation, median, minimum, and maximum) were tabulated by dose level and schedule. Nominal time data were used in the analysis, and the linear up/log down trapezoidal method was used for calculating AUC.

pAKT = test: Modulation of pAkt in the brain of healthy mice; format: in vivo, Female CD-1 mice; conditions: single oral dose 25 mg/kg
Method: Inhibition of the PI3K pathway was assessed in the brain of healthy mice through measurement of two markers, pAkt and pS6. […] Brains and plasma were collected at 1 and 6 hours post-dose, from 3 animals at each time point. […] For PD analysis, cell extraction buffer (Invitrogen, Camarillo, Calif.) containing 10 mM Tris pH 7.4, 100 mM NaCl, 1 mM EDTA, 1 mM EGTA, 1 mM NaF, 20 mM Na4P2O7, 2 mM Na3VO4, 1% Triton X-100, 10% glycerol, 0.1% SDS, and 0.5% deoxycholate was supplemented with phosphatase, protease inhibitors (Sigma, St. Louis, Mo.) and 1 mM PMSF and added to frozen brain biopsies. Brains were homogenized with a small pestle (Konte Glass Company, Vineland, N.J.), sonicated briefly on ice, and centrifuged at 20,000 g for 20 minutes at 4° C. Protein concentration was determined using BCA protein assay (Pierce, Rockford, Ill.). Proteins were separated by electrophoresis and transferred to NuPage nitrocellulose membranes (Invitrogen, Camarillo, Calif.). Licor Odyssey Infrared detection system (Licor, Lincoln, Nebr.) was used to assess and quantify protein expression. […] The differences in marker levels between the treated and control mice were evaluated using the Student's t-test (Prism 5, GraphPad).

CLK1 = CLK1 (Homo sapiens, UniProt P49759); test: biochemical; conditions: read-out: % inhib
CLK1, sequence (P49759 whole entry): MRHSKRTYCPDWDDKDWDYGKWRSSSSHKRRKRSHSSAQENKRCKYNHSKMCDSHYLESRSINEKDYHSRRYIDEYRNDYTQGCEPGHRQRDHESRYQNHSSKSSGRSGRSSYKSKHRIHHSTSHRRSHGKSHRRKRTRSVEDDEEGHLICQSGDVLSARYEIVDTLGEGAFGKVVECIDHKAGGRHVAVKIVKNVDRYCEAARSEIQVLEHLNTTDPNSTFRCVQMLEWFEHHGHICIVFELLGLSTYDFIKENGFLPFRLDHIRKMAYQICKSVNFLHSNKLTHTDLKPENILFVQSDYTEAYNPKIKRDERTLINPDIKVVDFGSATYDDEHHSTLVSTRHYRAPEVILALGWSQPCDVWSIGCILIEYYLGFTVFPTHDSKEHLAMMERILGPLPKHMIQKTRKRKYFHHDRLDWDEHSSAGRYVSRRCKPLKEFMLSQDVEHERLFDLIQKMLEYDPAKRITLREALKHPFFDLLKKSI

EphA2 = EphA2 (Homo sapiens, UniProt P29317); test: biochemical; conditions: read-out: % inhib
EphA2, sequence (P29317 24-976, species assumed): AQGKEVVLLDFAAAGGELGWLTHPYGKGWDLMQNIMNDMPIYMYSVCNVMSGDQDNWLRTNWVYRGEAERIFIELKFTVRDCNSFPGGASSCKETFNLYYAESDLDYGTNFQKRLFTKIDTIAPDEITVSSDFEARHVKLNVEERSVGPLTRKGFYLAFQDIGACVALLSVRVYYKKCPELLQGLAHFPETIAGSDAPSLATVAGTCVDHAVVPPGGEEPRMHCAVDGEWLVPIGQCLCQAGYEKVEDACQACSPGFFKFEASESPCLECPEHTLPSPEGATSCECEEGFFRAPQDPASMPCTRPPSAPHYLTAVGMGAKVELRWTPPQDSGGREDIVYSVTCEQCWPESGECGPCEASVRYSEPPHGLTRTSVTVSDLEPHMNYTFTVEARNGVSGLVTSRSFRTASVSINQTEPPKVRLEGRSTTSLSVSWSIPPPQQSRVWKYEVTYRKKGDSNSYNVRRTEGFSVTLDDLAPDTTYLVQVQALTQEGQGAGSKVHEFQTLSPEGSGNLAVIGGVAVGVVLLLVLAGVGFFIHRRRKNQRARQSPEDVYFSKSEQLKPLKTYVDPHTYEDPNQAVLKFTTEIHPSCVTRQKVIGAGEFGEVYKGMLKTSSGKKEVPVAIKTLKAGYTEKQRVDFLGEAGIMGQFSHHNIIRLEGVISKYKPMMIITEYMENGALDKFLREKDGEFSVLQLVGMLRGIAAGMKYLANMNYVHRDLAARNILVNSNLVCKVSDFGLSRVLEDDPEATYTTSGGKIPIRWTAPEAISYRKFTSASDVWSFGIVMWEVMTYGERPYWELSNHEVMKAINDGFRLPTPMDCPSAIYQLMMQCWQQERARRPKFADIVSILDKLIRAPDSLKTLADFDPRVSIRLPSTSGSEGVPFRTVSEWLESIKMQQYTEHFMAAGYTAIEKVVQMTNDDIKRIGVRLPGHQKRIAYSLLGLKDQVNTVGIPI

Fyn = Fyn (Homo sapiens, UniProt P06241); test: biochemical; conditions: read-out: % inhib
Fyn, sequence (P06241 whole entry): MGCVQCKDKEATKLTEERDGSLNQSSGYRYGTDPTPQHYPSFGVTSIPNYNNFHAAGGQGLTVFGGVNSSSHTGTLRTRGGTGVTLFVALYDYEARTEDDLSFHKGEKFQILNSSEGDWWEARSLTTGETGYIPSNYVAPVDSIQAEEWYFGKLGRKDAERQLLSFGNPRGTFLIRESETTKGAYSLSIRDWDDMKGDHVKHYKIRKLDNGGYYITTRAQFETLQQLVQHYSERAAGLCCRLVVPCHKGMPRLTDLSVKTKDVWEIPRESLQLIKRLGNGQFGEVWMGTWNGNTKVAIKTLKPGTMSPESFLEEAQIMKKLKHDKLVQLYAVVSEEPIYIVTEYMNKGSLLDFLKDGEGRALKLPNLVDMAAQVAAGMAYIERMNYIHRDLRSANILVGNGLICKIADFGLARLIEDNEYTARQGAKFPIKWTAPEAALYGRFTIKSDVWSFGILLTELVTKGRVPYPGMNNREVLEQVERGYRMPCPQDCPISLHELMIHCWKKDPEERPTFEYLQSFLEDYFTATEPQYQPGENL

PhK_gamma1 = PhK_gamma1 (Homo sapiens, UniProt Q16816); test: biochemical; conditions: read-out: % inhib
PhK_gamma1, sequence (Q16816 whole entry): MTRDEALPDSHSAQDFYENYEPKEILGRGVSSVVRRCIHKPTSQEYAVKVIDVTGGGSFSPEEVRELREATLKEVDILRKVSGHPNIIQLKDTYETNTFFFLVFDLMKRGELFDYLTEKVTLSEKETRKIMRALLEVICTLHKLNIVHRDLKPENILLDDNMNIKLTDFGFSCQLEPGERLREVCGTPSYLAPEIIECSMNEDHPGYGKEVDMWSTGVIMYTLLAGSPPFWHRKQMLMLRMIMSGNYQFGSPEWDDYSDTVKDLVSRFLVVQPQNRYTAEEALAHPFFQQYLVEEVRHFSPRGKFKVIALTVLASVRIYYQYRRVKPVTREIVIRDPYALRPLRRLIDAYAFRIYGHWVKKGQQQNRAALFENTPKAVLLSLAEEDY

PhK_gamma2 = PhK_gamma2 (Homo sapiens, UniProt P15735); test: biochemical; conditions: read-out: % inhib
PhK_gamma2, sequence (P15735 whole entry): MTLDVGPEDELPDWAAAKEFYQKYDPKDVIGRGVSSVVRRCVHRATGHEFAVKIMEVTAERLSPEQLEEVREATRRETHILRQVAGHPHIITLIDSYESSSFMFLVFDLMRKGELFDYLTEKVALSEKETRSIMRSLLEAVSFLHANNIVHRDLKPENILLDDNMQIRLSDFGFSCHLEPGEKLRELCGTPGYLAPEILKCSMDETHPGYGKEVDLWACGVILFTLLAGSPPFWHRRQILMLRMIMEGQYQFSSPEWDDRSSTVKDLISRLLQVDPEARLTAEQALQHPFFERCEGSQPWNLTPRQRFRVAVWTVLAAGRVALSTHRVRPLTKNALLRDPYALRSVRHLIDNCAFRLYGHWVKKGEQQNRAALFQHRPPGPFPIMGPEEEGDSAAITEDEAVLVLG

[2] = human, plasma, oral, 2 mg once daily, multiple doses, Cycle 1 Day 15
[3] = human, plasma, oral, 4 mg once daily, multiple doses, Cycle 1 Day 15
[4] = human, plasma, oral, 8 mg once daily, multiple doses, Cycle 1 Day 15
[5] = human, plasma, oral, 15 mg once daily, multiple doses, Cycle 1 Day 15
[6] = human, plasma, oral, 20 mg once daily, multiple doses, Cycle 1 Day 15
[7] = human, plasma, oral, 45 mg once daily, multiple doses, Cycle 1 Day 8
[8] = human, plasma, oral, 65 mg once daily, multiple doses, Cycle 1 Day 8
[9] = human, plasma, 2 mg single oral dose, Cycle 1 Day 1
[10] = human, plasma, 4 mg single oral dose, Cycle 1 Day 1
[11] = human, plasma, 8 mg single oral dose, Cycle 1 Day 1
[12] = human, plasma, 15 mg single oral dose, Cycle 1 Day 1
[13] = human, plasma, 20 mg single oral dose, Cycle 1 Day 1
[14] = human, plasma, 30 mg single oral dose, Cycle 1 Day 1
[15] = human, plasma, 45 mg single oral dose, Cycle 1 Day 1
[16] = human, plasma, 65 mg single oral dose, Cycle 1 Day 1

CC1(C)OCCn2c1nc1c(N3CCOCC3)nc(-c3cnc(N)nc3)nc12 [GDC-0084, 5-(6,6-dimethyl-4-morpholino-8,9-dihydro-6H-[1,4]oxazino[3,4-e]purin-2-yl)pyrimidin-2-amine]
concentration at 15 day ([1]; 4 mg once daily, multiple doses, Cycle 1 Day 15): 0.0207 µM
CL/F (L/hr), Mean ([1]; 4 mg single oral dose, Cycle 1 Day 1): 4.87 L/h
concentration at 15 day ([1]; 8 mg once daily, multiple doses, Cycle 1 Day 15): 0.0301 µM
CL/F (L/hr), Mean ([1]; 8 mg single oral dose, Cycle 1 Day 1): 12.4 L/h
concentration at 15 day ([1]; 15 mg once daily, multiple doses, Cycle 1 Day 15): 0.0581 µM
concentration at 15 day ([1]; 20 mg once daily, multiple doses, Cycle 1 Day 15): 0.0635 µM
CL/F (L/hr), Mean ([1]; 20 mg single oral dose, Cycle 1 Day 1): 7.92 L/h
concentration at 15 day ([1]; 30 mg once daily, multiple doses, Cycle 1 Day 15): 0.155 µM
CL/F (L/hr), Mean ([1]; 30 mg single oral dose, Cycle 1 Day 1): 8.22 L/h
concentration at 15 day ([1]; 45 mg once daily, multiple doses, Cycle 1 Day 8): 0.206 µM
concentration at 15 day ([1]; 65 mg once daily, multiple doses, Cycle 1 Day 8): 0.271 µM
half-life ([1]; human, plasma, oral, across Cohorts 1-6 (2 to 30 mg), single dose, read-out: apparent terminal phase t1/2 (converted)): ~18.7 h
Cmax [1, 2]: 0.0331 µM
AUC(0-t) [1, 2]: 0.346 µM·h
concentration at 15 day [1, 2]: 0.00877 µM
Tmax ([1]; human, plasma, oral, 2 mg once daily, multiple doses, Cycle 1 Day 15, read-out: Tmax (hr), Median): 2 h
Cmax [1, 3]: 0.593 µM
AUC(0-t) [1, 3]: 0.833 µM·h
Tmax ([1]; human, plasma, oral, 4 mg once daily, multiple doses, Cycle 1 Day 15, read-out: Tmax (hr), Median): 2 h
Cmax [1, 4]: 0.0883 µM
AUC(0-t) [1, 4]: 1.16 µM·h
Tmax ([1]; human, plasma, oral, 8 mg once daily, multiple doses, Cycle 1 Day 15, read-out: Tmax (hr), Median): 2.5 h
Cmax [1, 5]: 0.156 µM
AUC(0-t) [1, 5]: 2.34 µM·h
Tmax ([1]; human, plasma, oral, 15 mg once daily, multiple doses, Cycle 1 Day 15, read-out: Tmax (hr), Median): 3 h
Cmax [1, 6]: 0.23 µM
AUC(0-t) [1, 6]: 2.87 µM·h
Tmax ([1]; human, plasma, oral, 20 mg once daily, multiple doses, Cycle 1 Day 15, read-out: Tmax (hr), Median): 2 h
Cmax ([1]; human, plasma, oral, 30 mg once daily, multiple doses, Cycle 1 Day 15): 0.332 µM
AUC(0-t) ([1]; human, plasma, oral, 30 mg once daily, multiple doses, Cycle 1 Day 15, n = 5): 5.67 µM·h
Tmax ([1]; human, plasma, oral, 30 mg once daily, multiple doses, Cycle 1 Day 15, read-out: Tmax (hr), Median): 2 h
Cmax [1, 7]: 0.544 µM
AUC(0-t) [1, 7]: 8.06 µM·h
Tmax ([1]; human, plasma, oral, 45 mg once daily, multiple doses, Cycle 1 Day 8, read-out: Tmax (hr), Median): 3.5 h
Cmax [1, 8]: 0.58 µM
AUC(0-t) [1, 8]: 9.01 µM·h
Tmax ([1]; human, plasma, oral, 65 mg once daily, multiple doses, Cycle 1 Day 8, read-out: Tmax (hr), Median): 3 h
half-life ([1]; human, plasma, po, 2 mg, 2 mg single oral dose, Cycle 1 Day 1, read-out: T1/2 (hr), Mean (converted)): 16.9 h
half-life ([1]; human, plasma, po, 4 mg, 4 mg single oral dose, Cycle 1 Day 1, read-out: T1/2 (hr), Mean (converted)): 21.8 h
half-life ([1]; human, plasma, po, 8 mg, 8 mg single oral dose, Cycle 1 Day 1, read-out: T1/2 (hr), Mean (converted)): 18.2 h
half-life ([1]; human, plasma, po, 15 mg, 15 mg single oral dose, Cycle 1 Day 1, read-out: T1/2 (hr), Mean (converted)): 18.1 h
half-life ([1]; human, plasma, po, 20 mg, 20 mg single oral dose, Cycle 1 Day 1, read-out: T1/2 (hr), Mean (converted)): 14.8 h
half-life ([1]; human, plasma, po, 30 mg, 30 mg single oral dose, Cycle 1 Day 1, read-out: T1/2 (hr), Mean (converted)): 22 h
AUC(0-t) [1, 9]: 0.21 µM·h
AUC(0-inf) [1, 9]: 0.365 µM·h
Tmax ([1]; human, plasma, 2 mg single oral dose, Cycle 1 Day 1, read-out: Tmax (hr), Median): 2 h
Cmax [1, 10]: 0.0359 µM
AUC(0-t) [1, 10]: 0.435 µM·h
AUC(0-inf) [1, 10]: 0.833 µM·h
Tmax ([1]; human, plasma, 4 mg single oral dose, Cycle 1 Day 1, read-out: Tmax (hr), Median): 3 h
Cmax [1, 11]: 0.0452 µM
AUC(0-t) [1, 11]: 0.509 µM·h
AUC(0-inf) [1, 11]: 0.974 µM·h
Tmax ([1]; human, plasma, 8 mg single oral dose, Cycle 1 Day 1, read-out: Tmax (hr), Median): 3 h
Cmax [1, 12]: 0.0912 µM
AUC(0-t) [1, 12]: 1.09 µM·h
AUC(0-inf) [1, 12]: 1.97 µM·h
Tmax ([1]; human, plasma, 15 mg single oral dose, Cycle 1 Day 1, read-out: Tmax (hr), Median): 2 h
Cmax [1, 13]: 0.159 µM
AUC(0-t) [1, 13]: 1.9 µM·h
AUC(0-inf) [1, 13]: 2.75 µM·h
Tmax ([1]; human, plasma, 20 mg single oral dose, Cycle 1 Day 1, read-out: Tmax (hr), Median): 2 h
Cmax [1, 14]: 0.174 µM
AUC(0-t) [1, 14]: 2.42 µM·h
AUC(0-inf) [1, 14]: 5.33 µM·h
Tmax ([1]; human, plasma, 30 mg single oral dose, Cycle 1 Day 1, read-out: Tmax (hr), Median): 2 h
Cmax [1, 15]: 0.234 µM
AUC(0-t) [1, 15]: 3.12 µM·h
Tmax ([1]; human, plasma, 45 mg single oral dose, Cycle 1 Day 1, read-out: Tmax (hr), Median): 3 h
Cmax [1, 16]: 0.255 µM
AUC(0-t) [1, 16]: 4.06 µM·h
Tmax ([1]; human, plasma, 65 mg single oral dose, Cycle 1 Day 1, read-out: Tmax (hr), Median): 2.5 h
Tmax ([1]; human, plasma, single oral dose, all cohorts, read-out: median Tmax): ~2 h
dose proportionality of Cmax and AUC0-24 ([1]; single and multiple doses, 2 mg to 65 mg once daily): approximately linear and dose proportional increase in Cmax and AUC0-24
Suppression of pAkt in brain (pAKT; 1 hour post dose): 90%
Suppression of pAkt in brain (pAKT; 6 hours after dosing): greater than 70%
inhibition at 1 µM (CLK1): 4%
inhibition at 1 µM (EphA2): -0.7%
inhibition at 1 µM (Fyn): 9%
inhibition at 1 µM (PhK_gamma1): 2%
inhibition at 1 µM (PhK_gamma2): 0%

Reference: patent publication US11643421B2, “Process for the preparation of tricyclic PI3K inhibitor compounds and methods for using the same for the treatment of cancer” (priority 2015, dated 2023)
